How the values were obtained:
[1] = test system: malondialdehyde-protein adducts; test: Hepatic lipid peroxidation (malondialdehyde-protein adducts, immunohistochemistry) in CCl4-treated rats; format: in vivo, Sprague-Dawley rats; conditions: 48 h
Description: (§1) Forty-eight hours after the CCl4 or mineral oil injection (and 4 hours after the [^3H]thymidine injection), the rats were sacrificed. Thereafter, liver tissues were promptly removed, and a piece was fixed in 10% formaldehyde and embedded in paraffin for immunohistochemical staining.
Liver tissue was immunostained with antisera, specific for malondialdehyde-lysine adducts, raised against malondialdehyde-lysine adducts as described by Houglum et al., J Clin Invest 96:2269-76 (1995). Briefly, guinea pig LDL was isolated and modified with MDA, and the homologous modified LDL was used to immunize guinea pigs.
A phase-contrast microscope was utilized for hematoxylin/eosin staining and immunohistochemistry with alkaline phosphatase secondary antibodies (Vector Laboratories). Cytochromes utilized were alkaline phosphatase with fast green as counterstain (Sigma Chemical Co.). Negative control samples were processed in parallel under the same conditions, but with omission of the primary antibody.
In order to ascertain whether or not the prevention of activation observed with pentoxifylline resulted from interfering with the hepatocellular injury induced by CCl4, the degree of hepatocellular injury and lipid peroxidation were determined in those animals. […] As set forth above, protein adducts with malondialdehyde were detected using specific antibodies against malondialdehyde-lysine epitopes.

[2] = test system: NFkB; test: Mobility shift analysis of stellate cell nuclear extracts with NFkB oligonucleotide; format: in vivo, Sprague-Dawley rats; conditions: CCl4-treated rats, gel shift
Description: Gel retardation analysis of protein-DNA complexes were performed with an oligonucleotide of the putative DNA binding site.
For these analyses, equal amounts of nuclear protein were incubated with 1 ng of ^32P-labeled-NFkB (FIG. 3A) or ^32P-labeled-α-SMA-E box (FIG. 3B) oligonucleotides. The DNA-protein complexes were resolved by electrophoresis on a 6% nondenaturing polyacrylamide gel, the position of the bound DNA being indicated by arrows in FIGS. 3A-B. As described further below, some samples were incubated with specific antibodies or unlabeled oligonucleotide.
More specifically, FIG. 3A depicts DNA-protein complexes resolved by gel electrophoresis for representative samples of control (lane 2), CCl4 (lane 3), CCl4/pentoxifylline (lane 4); CCl4/metabolite 5 (lane 5); and CCl4+NFkB oligonucleotide (lane 6). On lane 1, the ^32P-labeled-NFkB probe was processed without nuclear extracts. […] The complex of ^32P-labeled NFkB oligonucleotides and nuclear extracts from activated stellate cells was competed by a NFkB cognate oligonucleotide (lane 6).

[3] = test system: 3T3 NIH fibroblasts; test: Fibroblast proliferation in culture; format: cell-based; conditions: for effect on fibroblast growth induced by cytokines PDGF, EGF and FGF: data not shown
Description: The biological activities of pentoxifylline and metabolite 5 were further studied by measuring their effects on the stimulation of fibroblast proliferation. For this study, 3T3 NIH fibroblasts were cultured in the presence or absence of pentoxifylline or metabolite 5.

[4] = after pentoxifylline; cited from earlier work
[5] = test system: α-SMA-E box; test: Mobility shift analysis of stellate cell nuclear extracts with α-SMA-E box oligonucleotide; format: in vivo, Sprague-Dawley rats; conditions: CCl4-treated rats, gel shift
Description: (§2) At least four Sprague-Dawley (Charles River Breeding Labs) male rats (50 to 60 g) were assigned to each of four testing groups (designated as “CCl4”, “pentoxifylline”, “metabolite 5”, and “control”). Each rat received a single intraperitoneal injection of CCl4 in mineral oil (1:3; v/v) at a dose of 2 mL/kg body weight (CCl4, pentoxifylline, and metabolite 5 groups), or mineral oil only (control group). In addition, animals received intraperitoneal injections (100 μL) of saline (control and CCl4 groups), 200 mg/kg pentoxifylline (pentoxifylline group), or 200 mg/kg of the ester prodrug of pentoxifylline metabolite 5 (metabolite 5 group) at the following times with respect to mineral oil or CCl4 administration: −4 h, +8 h, +20 h, +32 h, and +44 h.
Briefly, cells were homogenized in 1 mL of 5% citric acid, 0.5% NP-40, 10 mM sodium fluoride and 10 mM sodium pyrophosphate with a glass Dounce homogenizer with a loose fitting pestle. The homogenized cells were placed above a cushion consisting of 30% sucrose and 1% citric acid. The nuclei were precipitated by a 4,000 g centrifugation at 4° C. for 30 min. and frozen at −70° C.
Gel retardation analysis of protein-DNA complexes were performed with an oligonucleotide of the putative DNA binding site. […]

[6] = test system: cAMP phosphodiesterase activity in hepatic stellate cells; test: CREB phosphorylation at Ser 133 in stellate cell nuclear extracts (Western blot) as measure of cAMP phosphodiesterase inhibition in vivo; set-up: species or system Sprague-Dawley rats; conditions: for expression of CREB-PSer133 in stellate cell nuclear extracts: CCl4-treated rats, Western blot
Description: Stellate cells were identified by their typical autofluorescence at 328 nm excitation wavelength, staining of lipid droplets by oil red, and immunohistochemistry with a monoclonal antibody against desmin. [Bedossa et al., Hepatology 19(5):1262-71 (1994)]. Detection of α-SMA, malondialdehyde-protein adducts, and CREB-PSer 133 in stellate cells extracts was performed by Western blot [Buck et al., EMBO J. 13:851-60 (1994)], and using antibodies directed against α-SMA (Vector Laboratories), malondialdehyde-lysine epitopes as described below [Trautwein et al., J. Clin. Invest. 93:2554-61 (1990)], or CREB-PSer 133 (Upstate Biotechnology).
Next, pentoxifylline and metabolite 5 were evaluated to determine whether they inhibit cAMP phosphodiesterase activity in hepatic stellate cells in vivo leading to an increase in protein kinase A-mediate phosphorylation. Because this signal transduction pathway triggers site-specific phosphorylation of the nuclear transcription factor CREB (cAMP responsive element binding protein) on Serine 133 [Yamamoto et al., Nature 334:494-98 (1988)], the induction of CREB phosphorylation at Ser 133 was analyzed in nuclear extracts from freshly isolated stellate cells using an antibody against the activated, phosphorylated form of CREB [Ginty et al., Science 260:238-42 (1993)].
FIG. 4B is a Western blot indicating the results of phosphorylation of CREB at Serine 133 in stellate cell nuclear extracts with control (lane 1), CCl4 (lane 2), CCl4/pentoxifylline (lane 3), and CCl4/metabolite 5 (lane 4) animals. […] Molecular markers (kilodaltons) are shown on the right margin of FIG. 4B. In addition to recognizing CREB, anti-CREB-PSer133 detected two other proteins. These are most likely members of the CREB-ATF family, ATF-1 and CREM, that have phosphoacceptor sequences similar to that of CREB-PSer133 [Ginty et al., Science 260:238-42 (1993)]. […] Neither CREB PSer133 nor phosphorylated members of the CREB-ATF family were detected in stellate cell nuclear extracts from CCl4-treated animals (lane 2).

[7] = test system: α-smooth muscle actin (α-SMA) expression in hepatic stellate cells; test: Stellate cell activation: α-SMA expression by Western blot of freshly isolated stellate cells, CCl4-treated rats; format: in vivo, Sprague-Dawley rats; conditions: 200 mg/kg i.p., 48 h, metabolite 5 given as ester prodrug
Description: as §2
Hepatic stellate cells were prepared from rats by in situ perfusion of the liver and single-step density Nycodenz® gradient (Accurate Chemical & Scientific Corp.). […] The cells were mixed with 9.5 mL Hank's buffer containing 3 g/L BSA and 8 mL of 28.7% (w/v) Nycodenz® in sodium-free Hank's buffer. The gradient was generated by placing 6 mL of the Hank's/BSA solution on top of the liver cell mixture in a 50 mL centrifugation tube. […]

[8] = test system: cyclic nucleotide phosphodiesterases; conditions: cited from earlier work
[9] = test system: dermal fibroblasts; conditions: cited from earlier work
[10] = phosphorus-induced hepatocellular necrosis; cited from earlier work
[11] = rat, in vivo
Description: At least four Sprague-Dawley (Charles River Breeding Labs) male rats (50 to 60 g) were assigned to each of four testing groups (designated as “CCl4”, “pentoxifylline”, “metabolite 5”, and “control”). Each rat received a single intraperitoneal injection of CCl4 in mineral oil (1:3; v/v) at a dose of 2 mL/kg body weight (CCl4, pentoxifylline, and metabolite 5 groups), or mineral oil only (control group). In addition, animals received intraperitoneal injections (100 μL) of saline (control and CCl4 groups), 200 mg/kg pentoxifylline (pentoxifylline group), or 200 mg/kg of the ester prodrug of pentoxifylline metabolite 5 (metabolite 5 group) at the following times with respect to mineral oil or CCl4 administration: −4 h, +8 h, +20 h, +32 h, and +44 h. The last injection (at +44h) included 30 μCi of 6-[^3H]thymidine (DuPont).

[12] = test system: hepatic stellate cells; test: Stellate cell proliferation ([3H]thymidine incorporation into stellate cell DNA) in CCl4-treated rats; format: in vivo, Sprague-Dawley rats; conditions: 200 mg/kg i.p. at -4, +8, +20, +32, +44 h, 48 h, metabolite 5 given as ester prodrug
Description: as §1
Hepatic stellate cells were prepared from rats by in situ perfusion of the liver and single-step density Nycodenz® gradient (Accurate Chemical & Scientific Corp.). [See Bedossa et al., Hepatology 19(5):1262-71 (1994); Brenner et al., Mol. Biol. Med. 7:105-15 (1990); Schäfer et al., Hepatology 7(4):680-87 (1987)]. The cells were mixed with 9.5 mL Hank's buffer containing 3 g/L BSA and 8 mL of 28.7% (w/v) Nycodenz® in sodium-free Hank's buffer. […]
Nuclei were prepared by a modification of the procedure described previously, e.g., by Buck et al., EMBO J. 13:851-60 (1994). […] DNA was isolated, extracted and counted for [^3H]thymidine incorporation.
Stellate cell proliferation was assessed by the incorporation of [^3H]thymidine. Stellate cell activation was evaluated by the expression of α-smooth muscle actin (α-SMA). […]
The specific activity of stellate cell DNA, an index of S-phase labeling, was determined from at least four rats in each experimental group after 4 hours of labeling with [^3H]thymidine at 1 PM. […]

| SMILES | hepatic lipid peroxidation (malondialdehyde-protein adducts) versus CCl4 alone [1] | effect on NFkB nuclear binding activity of stellate cells [2] | effect on fibroblast growth in logarithmic phase [3] | effect on fibroblast growth induced by cytokines PDGF, EGF and FGF [3] | plasma concentration relative to pentoxifylline [4] | effect on complex between α-SMA-E box and stellate cell nuclear extracts [5] | expression of CREB-PSer133 in stellate cell nuclear extracts [6] | phosphodiesterase inhibitory activity ([6]; rat, in vivo) | effect on stellate cell activation (α-SMA expression, Western blot) [7] | phosphodiesterase inhibition [8] | collagen gene expression [9] | hepatic fibrosis [10] | toxicity of the dose to the animals [11] | effect on stellate cell proliferation (stellate cell DNA [3H]thymidine specific activity) [12] |
| --- | --- | --- | --- | --- | --- | --- | --- | --- | --- | --- | --- | --- | --- | --- |
| Cn1cnc2c1c(=O)n(CCCC(=O)O)c(=O)n2C [metabolite 5, 1-(3-carboxypropyl)-3,7-dimethylxanthine] | did not affect | prevented NFkB nuclear activity induced by CCl4 | block fibroblast growth in logarithmic phase | blocked fibroblast growth | five times greater | prevented the formation of a complex | not detected | lacks phosphodiesterase inhibitory activity | prevented the activation of stellate cells induced by CCl4 |  |  |  |  |  |
| CC(=O)CCCCn1c(=O)c2c(ncn2C)n(C)c1=O [pentoxifylline, 1-(5-oxohexyl)-3,7-dimethylxanthine] | comparable | prevented NFkB nuclear activity induced by CCl4 | block fibroblast growth in logarithmic phase | blocked fibroblast growth |  | prevented the formation of a complex | markedly increased |  | prevented the activation of stellate cells induced by CCl4 | non-specific inhibitor of cyclic nucleotide phosphodiesterases | inhibits collagen gene expression | prevented hepatic fibrosis | not toxic | abolished the proliferation of stellate cells |

From patent US6420428B1, “Treatment and prevention of hepatic disorders” (The Regents of the University of California, priority 1996, dated 2002)
